Experiments:
Experiment in all cases: relative viability (nuclei count vs DMSO), 5 days (fraction); higher = more cells survive
Bosutinib + Palbociclib = compound: COc1cc(Nc2c(C#N)cnc3cc(OCCCN4CCN(C)CC4)c(OC)cc23)c(Cl)cc1Cl [Bosutinib] + CC(=O)c1c(C)c2cnc(Nc3ccc(N4CCNCC4)cn3)nc2n(C2CCCC2)c1=O [Palbociclib] (partner 0.5 µM)
Method in brief: (§1)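 Lung cancer cell lines in 1536-well plates were dosed by pin tool the day after seeding, either with one drug alone or with a fixed anchor-drug dose plus five library-drug doses (not always all listed) in √10 steps. After 5 days, cells were fixed and their nuclei stained in one step (final 0.05% Triton X-100, 1% formaldehyde, 1 ug/ml Hoechst), then counted on 4× images. Relative viability is the nuclei count in treated wells divided by that in vehicle wells. Values are medians of duplicate plates.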

Bosutinib + Luminespib = compound: COc1cc(Nc2c(C#N)cnc3cc(OCCCN4CCN(C)CC4)c(OC)cc23)c(Cl)cc1Cl [Bosutinib] + CCNC(=O)c1noc(-c2cc(C(C)C)c(O)cc2O)c1-c1ccc(CN2CCOCC2)cc1 [Luminespib] (partner 0.01 µM)
Method in brief: as §1

Bosutinib + Linsitinib = compound: COc1cc(Nc2c(C#N)cnc3cc(OCCCN4CCN(C)CC4)c(OC)cc23)c(Cl)cc1Cl [Bosutinib] + C[C@]1(O)C[C@@H](c2nc(-c3ccc4ccc(-c5ccccc5)nc4c3)c3c(N)nccn32)C1 [Linsitinib] (partner 1 µM)
Method in brief: as §1

Bosutinib + AZD7762 = compound: COc1cc(Nc2c(C#N)cnc3cc(OCCCN4CCN(C)CC4)c(OC)cc23)c(Cl)cc1Cl [Bosutinib] + NC(=O)Nc1cc(-c2cccc(F)c2)sc1C(=O)N[C@H]1CCCNC1 [AZD7762] (partner 0.2 µM)
Method in brief: as §1

Bosutinib + Olaparib = compound: COc1cc(Nc2c(C#N)cnc3cc(OCCCN4CCN(C)CC4)c(OC)cc23)c(Cl)cc1Cl [Bosutinib] + O=C(c1cc(Cc2n[nH]c(=O)c3ccccc23)ccc1F)N1CCN(C(=O)C2CC2)CC1 [Olaparib] (partner 8 µM)
Method in brief: as §1

Cell Line	relative viability (Bosutinib + Palbociclib; first compound 0.01 µM)	relative viability (Bosutinib + Palbociclib; first compound 0.03162 µM)	relative viability (Bosutinib + Palbociclib; first compound 0.1 µM)	relative viability (Bosutinib + Palbociclib; first compound 1 µM)	relative viability (Bosutinib + Luminespib; first compound 0.01 µM)	relative viability (Bosutinib + Luminespib; first compound 0.03162 µM)	relative viability (Bosutinib + Luminespib; first compound 0.1 µM)	relative viability (Bosutinib + Luminespib; first compound 1 µM)	relative viability (Bosutinib + Linsitinib; first compound 0.01 µM)	relative viability (Bosutinib + Linsitinib; first compound 0.03162 µM)	relative viability (Bosutinib + Linsitinib; first compound 0.1 µM)	relative viability (Bosutinib + Linsitinib; first compound 1 µM)	relative viability (Bosutinib + AZD7762; first compound 0.01 µM)	relative viability (Bosutinib + AZD7762; first compound 0.03162 µM)	relative viability (Bosutinib + AZD7762; first compound 0.1 µM)	relative viability (Bosutinib + AZD7762; first compound 1 µM)	relative viability (Bosutinib + Olaparib; first compound 0.01 µM)	relative viability (Bosutinib + Olaparib; first compound 0.03162 µM)	relative viability (Bosutinib + Olaparib; first compound 0.1 µM)	relative viability (Bosutinib + Olaparib; first compound 1 µM)
EMC-BAC-2	0.519	0.5	0.508	0.533	1.22	1.07	1.17	1.04	0.852	0.791	0.832	0.733	1.18	1.11	1.13	1.09	0.48	0.525	0.51	0.621
EPLC-272H	0.282	0.305	0.313	0.317	0.149	0.932	0.649	0.278	1.18	1.25	1.31	1.14	0.225	0.244	0.18	0.232	0.722	0.909	0.626	0.515
H3255	0.322	0.306	0.323	0.319	1.11	0.912	0.866	0.784	0.94	0.974	0.994	0.45	0.846	1.02	0.949	0.517	0.568	0.56	0.598	0.421
HARA	0.339	0.293	0.243	0.171	0.885	0.549	0.682	0.741	1.01	0.913	0.892	0.629	0.304	0.308	0.297	0.644	0.896	0.825	0.761	0.515
HCC-15	0.763	0.71	0.699	0.63	0.39	0.346	0.315	0.18	0.905	0.837	0.954	0.803	1.23	1.12	1.23	1.23	0.652	0.699	0.695	0.661
HCC-44	0.985	0.967	0.964	0.865	1.18	1.07	1.08	0.627	0.696	0.619	0.674	0.559	1.02	1.01	1.01	1.04	0.981	0.923	0.978	1.04
HCC-78	0.457	0.425	0.506	0.435					0.575	0.492	0.52	0.407	0.655	0.788	0.781	0.584	0.722	0.937	0.888	0.687
HCC-366	0.423	0.365	0.375	0.247					0.708	0.604	0.457	0.0753	0.34	0.253	0.205	0.073	0.406	0.378	0.376	0.19

Reference: the supplement of paper PMC10307832
